One test has as its system COLO 205. Briefly: Cytotoxicity against human COLO205 cells at 50 ug/mL. Format: functional, cell-based.
The next test concerns OVCAR-3. In words: Cytotoxicity against human OVCAR-3 cells at 50 ug/mL. It is filed as functional, cell-based.

Calls of active or inactive are those of the source. The calls are words filed in the database; no cut-off is given here. Peptide text beside a SMILES is read from it.

With `C[C@@H]1NC(=O)[C@H]([C@@H](C)O)NC(=O)[C@H](Cc2ccc(O)cc2)NC(=O)[C@@H]2CCCN2C(=O)[C@H](Cc2ccc(O)cc2)NC(=O)[C@H](CCCNC(=N)N)NC(=O)[C@@H]2CCCN2C(=O)[C@H](CC(N)=O)NC1=O` (cyclo(ANPRYPYT)), the outcome in the test on COLO 205 and with OVCAR-3 was inactive.

For the origin of these results see ChEMBL document CHEMBL1146508, “Cyclonellin, a new cyclic octapeptide from the marine sponge Axinella carteri” (J Nat Prod, 2004).
